Experimental data published in US20200215009A1, “Optimized Solution for the Treatment of Alzheimer's, Stroke, Cardiovascular and other Amyloid Related Diseases” (priority 2017, published 2020).

Tests used:
[1] = tested on: cellular glutathione; details: dose of about 22-65 mg/kg; cited from earlier work
[2] = target: T1, L68Q cystatin C (Homo sapiens, UniProt P01034, L94Q); experiment: Preliminary trial of N-acetylcysteine in HCCAA patients expressing L68Q cystatin C, monitored by biopsy; type: in vivo
T1 construct: confirmed by genetic screen to express L68Q cystatin C; from tissue; host or cells: HCCAA patients; plaques and aggregated protein observed on biopsy
T1 sequence (P01034 27-146 L94Q): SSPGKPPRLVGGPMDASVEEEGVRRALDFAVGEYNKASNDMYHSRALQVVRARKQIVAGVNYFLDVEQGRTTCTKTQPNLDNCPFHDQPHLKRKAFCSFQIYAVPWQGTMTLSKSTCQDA
Description: Three persons who had been identified through characteristic HCCAA symptoms confirmed by genetic screen to express L68Q cystatin C agreed to participate in a preliminary trial with a prototype drug to support antioxidant and other effects of GSH. N-acetylcysteine was used as a GSH-support/anti-cystatin-C-polymerization archetypical drug for conceptual proof and support of the hypotheses supporting this invention. […] One patient fully complied with the prescribed protocol. Two patients were only partially compliant. The fully compliant patient presented with a 50% reduction in plaques observed on biopsy.
Treatments are continuing, augmented by confirmatory/advisory biopsies. Biopsy intervals may be approximately weekly, but longer intervals are envisioned as sufficient to monitor effects and dosages and to encourage compliance in testing and treatment maintenance. For example, biopsy intervals may be weekly, biweekly, monthly, bimonthly, quarterly, semi-annual, annual, etc. Biopsy appointments may be used both for treatment/disease monitoring, but also to maintain patient attention and interaction. Medical advisory panels and insurance issues may also be considered in determining the frequency and type(s) of biopsies.

disease arrest ([2]; all three HCCAA patients (one fully compliant, two partially compliant)) | reduction in plaques observed on biopsy ([2]; fully compliant patient) | reduction of aggregated protein previously observed ([2]; one of the two partially compliant patients) | Compound | change in cellular glutathione shortly after administration [1] | duration of effect, waning in plasma post administration [1]
 |  |  | O=C1N[C@H](C(=O)O)CS1 [OTC, L-2-oxothiazolidine-4-carboxolate] | double | ≤ 8 h
disease arrest | 50% | significant reduction | CC(=O)N[C@@H](CS)C(=O)O [N-acetylcysteine] |  | 
